# Reference: PubChem BioAssay (NCI)
#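 Assay format: 96-well plates, 48-hour exposure. GI50 marks 50% less growth. TGI marks complete inhibition of growth.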
# How the values were obtained:
# Assay in all cases: growth of human tumour cells (NCI), 48 h
# HOP-92 NSCLC = system: HOP-92 NSCLC
# COLO 205 colon = system: COLO 205 colon
# M14 melanoma = system: M14 melanoma
# HCC-2998 colon = system: HCC-2998 colon
# LOX IMVI melanoma = system: LOX IMVI melanoma
# SNB-75 CNS = system: SNB-75 CNS
# A549 NSCLC = system: A549 NSCLC
# MALME-3M melanoma = system: MALME-3M melanoma
# SF-539 CNS = system: SF-539 CNS
# SK-OV-3 ovarian = system: SK-OV-3 ovarian
# CCRF-CEM leukemia = system: CCRF-CEM leukemia
# MCF7 breast = system: MCF7 breast
# SNB-19 CNS = system: SNB-19 CNS
# OVCAR-4 ovarian = system: OVCAR-4 ovarian
# SF-268 CNS = system: SF-268 CNS
# RPMI-8226 leukemia = system: RPMI-8226 leukemia
# TK-10 renal = system: TK-10 renal
# EKVX NSCLC = system: EKVX NSCLC
# NCI-H23 lung = system: NCI-H23 lung
# HS 578T breast = system: HS 578T breast
# SR leukemia = system: SR leukemia
# SW-620 colon = system: SW-620 colon
# KM12 colon = system: KM12 colon
# RXF 393 renal = system: RXF 393 renal
# MOLT-4 leukemia = system: MOLT-4 leukemia
# IGROV1 ovarian = system: IGROV1 ovarian
# SN12C renal = system: SN12C renal
# SK-MEL-5 melanoma = system: SK-MEL-5 melanoma
# U251 CNS = system: U251 CNS
compound,measurement,setting,value
O=C(CSc1nnc(-c2ccc(Cl)cc2)n1-c1ccccc1)Nc1ccc(Cl)cc1,GI50,HOP-92 NSCLC,2720 nM
same,TGI,HOP-92 NSCLC,9.6 µM
same,GI50,COLO 205 colon,15.7 µM
same,TGI,COLO 205 colon,> 100 µM
same,GI50,M14 melanoma,25.1 µM
same,TGI,M14 melanoma,> 100 µM
same,GI50,HCC-2998 colon,43.9 µM
same,TGI,HCC-2998 colon,> 100 µM
same,GI50,LOX IMVI melanoma,2980 nM
same,TGI,LOX IMVI melanoma,10.2 µM
same,GI50,SNB-75 CNS,1570 nM
same,TGI,SNB-75 CNS,4.57 µM
same,GI50,A549 NSCLC,3.67 µM
same,TGI,A549 NSCLC,> 100 µM
same,GI50,MALME-3M melanoma,3.67 µM
same,TGI,MALME-3M melanoma,22.3 µM
same,GI50,SF-539 CNS,2380 nM
same,TGI,SF-539 CNS,5.18 µM
same,GI50,SK-OV-3 ovarian,4.53 µM
same,TGI,SK-OV-3 ovarian,17.3 µM
same,GI50,CCRF-CEM leukemia,> 100 µM
same,TGI,CCRF-CEM leukemia,> 100 µM
same,GI50,MCF7 breast,5.76 µM
same,TGI,MCF7 breast,> 100 µM
same,GI50,SNB-19 CNS,7.08 µM
same,TGI,SNB-19 CNS,> 100 µM
same,GI50,OVCAR-4 ovarian,3.38 µM
same,TGI,OVCAR-4 ovarian,> 100 µM
same,GI50,SF-268 CNS,4.85 µM
same,TGI,SF-268 CNS,> 100 µM
same,GI50,RPMI-8226 leukemia,4.14 µM
same,TGI,RPMI-8226 leukemia,> 100 µM
same,GI50,TK-10 renal,2200 nM
same,TGI,TK-10 renal,5.76 µM
same,GI50,EKVX NSCLC,20.9 µM
same,TGI,EKVX NSCLC,> 100 µM
same,GI50,NCI-H23 lung,5.09 µM
same,TGI,NCI-H23 lung,43.7 µM
same,GI50,HS 578T breast,3.52 µM
same,TGI,HS 578T breast,> 100 µM
same,GI50,SR leukemia,4.28 µM
same,TGI,SR leukemia,> 100 µM
same,GI50,SW-620 colon,8.68 µM
same,TGI,SW-620 colon,> 100 µM
same,GI50,KM12 colon,47.1 µM
same,TGI,KM12 colon,> 100 µM
same,GI50,RXF 393 renal,2030 nM
same,TGI,RXF 393 renal,4.98 µM
same,GI50,MOLT-4 leukemia,> 100 µM
same,TGI,MOLT-4 leukemia,> 100 µM
same,GI50,IGROV1 ovarian,5.24 µM
same,TGI,IGROV1 ovarian,> 100 µM
same,GI50,SN12C renal,3.19 µM
same,TGI,SN12C renal,> 100 µM
same,GI50,SK-MEL-5 melanoma,8.07 µM
same,TGI,SK-MEL-5 melanoma,> 100 µM
same,GI50,U251 CNS,3.2 µM
